Measurements from ChEMBL document CHEMBL1649160, “ST-246 antiviral efficacy in a nonhuman primate monkeypox model: determination of the minimal effective dose and human dose justification” (Antimicrob Agents Chemother, 2009).

Key:
[1] = AUC (0 to 24 hrs) in monkeypox virus infected cynomolgus monkey at 30 mg/kg, po qd for 14 days administered under fed condition measured after 7 days; assay type: ADME, organism-based, Macaca fascicularis; design: time < 24 hr, dose 30 mg/kg, route oral; settings: plasma
[2] = Cmax in monkeypox virus infected cynomolgus monkey at 30 mg/kg, po qd for 14 days administered under fed condition measured after 14 days; assay type: ADME, organism-based, Macaca fascicularis; design: dose 30 mg/kg, route oral; settings: in vivo
[3] = AUC (0 to 24 hrs) in monkeypox virus infected cynomolgus monkey at 10 mg/kg, po qd for 14 days administered under fed condition measured after 7 days; assay type: ADME, organism-based, Macaca fascicularis; design: time < 24 hr, dose 10 mg/kg, route oral; settings: plasma
[4] = AUC (0 to 24 hrs) in human at 13.3 mg/kg, po qd for 6 days administered under fed condition measured after 6 days; assay type: ADME, organism-based; design: time < 24 hr, dose 13.3 mg/kg, route oral; settings: plasma
[5] = AUC (0 to 24 hrs) in monkeypox virus infected cynomolgus monkey at 10 mg/kg, po qd for 14 days administered under fed condition measured after 14 days; assay type: ADME, organism-based, Macaca fascicularis; design: time < 24 hr, dose 10 mg/kg, route oral; settings: plasma
[6] = Cmax in human at 6.7 mg/kg, po qd for 6 days administered under fed condition measured after 6 days; assay type: ADME, organism-based; design: dose 6.7 mg/kg, route oral; settings: in vivo
[7] = AUC (0 to 24 hrs) in human at 4.2 mg/kg, po administered as single dose under fed condition measured after 1 day; assay type: ADME, organism-based; design: time < 24 hr, dose 4.2 mg/kg, route oral; settings: plasma
[8] = Cmax in monkeypox virus infected cynomolgus monkey at 10 mg/kg, po qd for 14 days administered under fed condition measured after 7 days; assay type: ADME, organism-based, Macaca fascicularis; design: dose 10 mg/kg, route oral; settings: in vivo
[9] = AUC (0 to 24 hrs) in monkeypox virus infected cynomolgus monkey at 30 mg/kg, po qd for 14 days administered under fed condition measured after 14 days; assay type: ADME, organism-based, Macaca fascicularis; design: time < 24 hr, dose 30 mg/kg, route oral; settings: plasma
[10] = AUC (0 to 24 hrs) in human at 13.3 mg/kg, po administered as single dose under fed condition measured after 1 day; assay type: ADME, organism-based; design: time < 24 hr, dose 13.3 mg/kg, route oral; settings: plasma
[11] = Cmax in human at 13.3 mg/kg, po qd for 21 days administered under fed condition measured after 21 days; assay type: ADME, organism-based; design: dose 13.3 mg/kg, route oral; settings: in vivo
[12] = Cmax in human at 4.2 mg/kg, po qd for 21 days administered under fed condition measured after 21 days; assay type: ADME, organism-based; design: dose 4.2 mg/kg, route oral; settings: in vivo
[13] = AUC (0 to 24 hrs) in human at 6.7 mg/kg, po administered as single dose under fed condition measured after 1 day; assay type: ADME, organism-based; design: time < 24 hr, dose 6.7 mg/kg, route oral; settings: plasma
[14] = AUC (0 to 24 hrs) in human at 13.3 mg/kg, po qd for 21 days administered under fed condition measured after 21 days; assay type: ADME, organism-based; design: time < 24 hr, dose 13.3 mg/kg, route oral; settings: plasma
[15] = AUC (0 to 24 hrs) in human at 6.7 mg/kg, po qd for 6 days administered under fed condition measured after 6 days; assay type: ADME, organism-based; design: time < 24 hr, dose 6.7 mg/kg, route oral; settings: plasma
[16] = AUC (0 to 24 hrs) in monkeypox virus infected cynomolgus monkey at 30 mg/kg, po administered as single dose under fed condition measured after 1 day; assay type: ADME, organism-based, Macaca fascicularis; design: time < 24 hr, dose 30 mg/kg, route oral; settings: plasma
[17] = Cmax in human at 13.3 mg/kg, po administered as single dose under fed condition measured after 1 day; assay type: ADME, organism-based; design: dose 13.3 mg/kg, route oral; settings: in vivo
[18] = Cmax in monkeypox virus infected cynomolgus monkey at 30 mg/kg, po administered as single dose under fed condition measured after 1 day; assay type: ADME, organism-based, Macaca fascicularis; design: dose 30 mg/kg, route oral; settings: in vivo
[19] = Cmax in human at 6.7 mg/kg, po administered as single dose under fed condition measured after 1 day; assay type: ADME, organism-based; design: dose 6.7 mg/kg, route oral; settings: in vivo
[20] = Cmax in monkeypox virus infected cynomolgus monkey at 20 mg/kg, po administered as single dose under fed condition measured after 1 day; assay type: ADME, organism-based, Macaca fascicularis; design: dose 20 mg/kg, route oral; settings: in vivo
[21] = Cmax in monkeypox virus infected cynomolgus monkey at 10 mg/kg, po administered as single dose under fed condition measured after 1 day; assay type: ADME, organism-based, Macaca fascicularis; design: dose 10 mg/kg, route oral; settings: in vivo
[22] = Cmax in human at 6.7 mg/kg, po qd for 21 days administered under fed condition measured after 21 days; assay type: ADME, organism-based; design: dose 6.7 mg/kg, route oral; settings: in vivo
[23] = AUC (0 to 24 hrs) in human at 6.7 mg/kg, po qd for 21 days administered under fed condition measured after 21 days; assay type: ADME, organism-based; design: time < 24 hr, dose 6.7 mg/kg, route oral; settings: plasma
[24] = Cmax in human at 13.3 mg/kg, po qd qd for 6 days administered under fed condition measured after 6 days; assay type: ADME, organism-based; design: dose 13.3 mg/kg, route oral; settings: in vivo
[25] = Cmax in monkeypox virus infected cynomolgus monkey at 10 mg/kg, po qd for 14 days administered under fed condition measured after 14 days; assay type: ADME, organism-based, Macaca fascicularis; design: dose 10 mg/kg, route oral; settings: in vivo
[26] = AUC (0 to 24 hrs) in monkeypox virus infected cynomolgus monkey at 20 mg/kg, po administered as single dose under fed condition measured after 1 day; assay type: ADME, organism-based, Macaca fascicularis; design: time < 24 hr, dose 20 mg/kg, route oral; settings: plasma
[27] = AUC (0 to 24 hrs) in monkeypox virus infected cynomolgus monkey at 10 mg/kg, po administered as single dose under fed condition measured after 1 day; assay type: ADME, organism-based, Macaca fascicularis; design: time < 24 hr, dose 10 mg/kg, route oral; settings: plasma
[28] = AUC (0 to 24 hrs) in human at 4.2 mg/kg, po qd for 21 days administered under fed condition measured after 21 days; assay type: ADME, organism-based; design: time < 24 hr, dose 4.2 mg/kg, route oral; settings: plasma
[29] = AUC (0 to 24 hrs) in human at 4.2 mg/kg, po qd for 6 days administered under fed condition measured after 6 days; assay type: ADME, organism-based; design: time < 24 hr, dose 4.2 mg/kg, route oral; settings: plasma
[30] = Cmax in human at 4.2 mg/kg, po qd for 6 days administered under fed condition measured after 6 days; assay type: ADME, organism-based; design: dose 4.2 mg/kg, route oral; settings: in vivo
[31] = Cmax in monkeypox virus infected cynomolgus monkey at 30 mg/kg, po qd for 14 days administered under fed condition measured after 7 days; assay type: ADME, organism-based, Macaca fascicularis; design: dose 30 mg/kg, route oral; settings: in vivo
[32] = Cmax in human at 4.2 mg/kg, po administered as single dose under fed condition measured after 1 day; assay type: ADME, organism-based; design: dose 4.2 mg/kg, route oral; settings: in vivo

## O=C(NN1C(=O)[C@@H]2[C@@H]3C=C[C@@H]([C@H]4C[C@@H]34)[C@@H]2C1=O)c1ccc(C(F)(F)F)cc1 [TECOVIRIMAT]
[1]
  AUC at 24 h: 20700 ng·h/mL
[2]
  Cmax: 1190 ng/mL
[3]
  AUC at 24 h: 12600 ng·h/mL
[4]
  AUC at 24 h: 23400 ng·h/mL
[5]
  AUC at 24 h: 13500 ng·h/mL
[6]
  Cmax: 1300 ng/mL
[7]
  AUC(0-t) at 24 h: 9100 ng·h/mL
[8]
  Cmax: 1020 ng/mL
[9]
  AUC at 24 h: 15800 ng·h/mL
[10]
  AUC(0-t) at 24 h: 21000 ng·h/mL
[11]
  Cmax: 2440 ng/mL
[12]
  Cmax: 1100 ng/mL
[13]
  AUC(0-t) at 24 h: 13100 ng·h/mL
[14]
  AUC at 24 h: 22700 ng·h/mL
[15]
  AUC at 24 h: 15400 ng·h/mL
[16]
  AUC(0-t) at 24 h: 18100 ng·h/mL
[17]
  Cmax: 2280 ng/mL
[18]
  Cmax: 1150 ng/mL
[19]
  Cmax: 1390 ng/mL
[20]
  Cmax: 1260 ng/mL
[21]
  Cmax: 1010 ng/mL
[22]
  Cmax: 1460 ng/mL
[23]
  AUC at 24 h: 16200 ng·h/mL
[24]
  Cmax: 2340 ng/mL
[25]
  Cmax: 1080 ng/mL
[26]
  AUC(0-t) at 24 h: 18400 ng·h/mL
[27]
  AUC(0-t) at 24 h: 13700 ng·h/mL
[28]
  AUC at 24 h: 10100 ng·h/mL
[29]
  AUC at 24 h: 11900 ng·h/mL
[30]
  Cmax: 1210 ng/mL
[31]
  Cmax: 1510 ng/mL
[32]
  Cmax: 985 ng/mL
